Laboratory results taken from article PMC3210109, “Flexible catalytic site conformations implicated in modulation of HIV-1 protease autoprocessing reactions” (Retrovirology, 2011).

What was measured:
[1] = target: embedded protease of GST-p6*-PR^NL-HA / GST-M1-PR^NL-HA fusion precursor (proximal site) (Human immunodeficiency virus type 1, UniProt P12497); assay: P site cleavage reaction mediated by the embedded protease, PR^NL fusion precursor, HEK293T cells; type: cell-based, HIV-1; conditions: darunavir; embedded vs released protease
Procedure: (§1) HEK293T cells (ATCC, Manassas, VA) were maintained in DMEM containing 10% fetal bovine serum and penicillin/streptomycin (0.6% Penicillin G sodium salt, 1.0% Streptomycin sulfate, 0.85% NaCl). Plasmid DNA was transfected into HEK293T cells using calcium phosphate as previously described [25, 46]. Briefly, HEK293T cells were seeded in 12-well plates the day before transfection to achieve 50~60% confluence at the time of transfection. About 1 h prior to transfection, chloroquine was added into each well to a final concentration of 25 μM. A total of 0.5 μg plasmid DNA in 65.7 μl H2O was mixed with 9.3 μl of 2 M CaCl2. Then 75 μl of 2xHBS (50 mM Hepes, pH7.04~7.05, 10 mM KCl, 12 mM Dextrose, 280 mM NaCl, 1.5 mM Na2HPO4) was added to the DNA-Ca mixture followed by gentle agitation. The resulting mixture was directly added drop-wise to each well. […] After 7-8 h incubation at 37°C, 5% CO2, the transfection medium was replaced with fresh chloroquine-free medium containing the corresponding protease inhibitors. […]
(§2) For quantification of protein intensity, Western blot images captured by an Odyssey infrared dual laser scanning unit were analyzed using TotalLab software (Nonlinear Dynamics Inc.). The total pixel volume of each band was quantified and normalized; the highest value was arbitrarily set at 1000.

PR^NL H69D precursor = target: T1, PR^NL H69D precursor (Human immunodeficiency virus type 1 group M subtype B, UniProt P12497, H557D); type: cell-based, HIV-1; conditions: darunavir, Figure 2F
T1 construct: expressed in transfected cells; host or cells: HEK293T
Procedure: as §1, §2

[2] = system: embedded protease of GST-M2-PR (tagless precursor); assay: P site cleavage reaction, tagless precursor GST-M2-PR; type: cell-based, HIV-1; parameters: dose or concentration left out as unconfirmed; conditions: […] nM darunavir
Source text: To examine whether different amino acid sequences fused to the C-terminus of PR influence protease autoprocessing, we engineered a panel of fusion precursors carrying different C-terminal epitopes (Figure 5A). A truncated version of M2 p6* (Figure 2A) was used to allow focused examination of the P site cleavage reaction. We also constructed GST-M2-PR, a precursor lacking any C-terminal epitope, to serve as a reference control.
HEK293T cells (ATCC, Manassas, VA) were maintained in DMEM containing 10% fetal bovine serum and penicillin/streptomycin (0.6% Penicillin G sodium salt, 1.0% Streptomycin sulfate, 0.85% NaCl). Plasmid DNA was transfected into HEK293T cells using calcium phosphate as previously described [25, 46]. Briefly, HEK293T cells were seeded in 12-well plates the day before transfection to achieve 50~60% confluence at the time of transfection. About 1 h prior to transfection, chloroquine was added into each well to a final concentration of 25 μM. A total of 0.5 μg plasmid DNA in 65.7 μl H2O was mixed with 9.3 μl of 2 M CaCl2. […]
as §2

[3] = system: HIV-1 infected cells (p24 production); conditions: ref [40],[41], read-out: IC50 to inhibit the production of p24; cited from earlier work
mature protease = conditions: ref [40],[41]; cited from earlier work
[4] = system: in vitro translated Gag-Pol precursor; parameters: method as in PMID 15280456; conditions: ref [21]; cited from earlier work

Structure (SMILES)	embedded protease less sensitive to inhibition than the corresponding released protease [1]	suppression of autoprocessing reactions mediated by the embedded H69D PR (PR^NL H69D precursor)	effect of treatment on the amount of the released proteases (H69D) (PR^NL H69D precursor; PR^NL H69D precursor)	suppression of the cleavage reaction, tagless precursor [2]	IC50 [3] [nM]	affinity for the catalytic site of the mature protease (mature protease)	sensitivity of Gag-Pol precursor to inhibition compared to the mature protease [4]
CC(C)CN(C[C@@H](O)[C@H](Cc1ccccc1)NC(=O)O[C@H]1CO[C@H]2OCC[C@H]21)S(=O)(=O)c1ccc(N)cc1 [darunavir]	at least 100 fold	not suppressed	did not increase	not suppressed	~5	low nanomolar	–
CC(C)c1nc(CN(C)C(=O)N[C@H](C(=O)N[C@@H](Cc2ccccc2)C[C@H](O)[C@H](Cc2ccccc2)NC(=O)OCc2cncs2)C(C)C)cs1 [ritonavir]	–	–	–	–	–	–	significantly low sensitivity
